This passage reports Km results from paper PMC12516557, “Isolation and characterization of peroxidase from potato leaves Solanum tuberosum: Application in glucose diagnostic kit” (Journal of Genetic Engineering & Biotechnology, 2025).

In this test the test system is T1, potato leaves peroxidase (PLPOD).
T1 construct: gene POD; native enzyme from mature leaves (Nile Delta, Egypt); CM-cellulose and Sephacryl S-300; 64 kDa by gel filtration; 3 activity bands ~40-65 kDa on SDS-PAGE
As to the kind of experiment: guaiacol oxidation at […] nm, Lineweaver-Burk plot. The note with it: co-substrate H2O2; sodium acetate buffer pH 5.6 (general assay); mixture of isoenzymes; discussion b65 prints 0.066 mM. The format is biochemical, Solanum tuberosum.

For orientation: Km means the substrate concentration at which the rate is half of its maximum. Take `COc1ccccc1O` [guaiacol]: the Km was 67 µM.
